From US12077503B2, “Substituted cyclic amides and their use as herbicides” (FMC CORPORATION, priority 2015, dated 2024)

Legend:
Type in all cases: in vivo
rice (Oryra sativa) = assay: Test B flooded paddy test; conditions: Oryza sativa, 250 g ai/ha, Flood; 0 to 100 scale where 0 is no effect and 100 is complete control; read-out: Rice plant response rating
Outline: (§1)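 2-leaf plants; pots flooded 3 cm over soil; cpd added to paddy water; depth held; greenhouse 13–15 d; visual rating vs controls, 0 = no effect, 100 = complete control.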

[1] = system: ducksalad (Heteranthera limosa); assay: Test B flooded paddy test; conditions: Heteranthera limosa, 250 g ai/ha, Flood; 0 to 100 scale where 0 is no effect and 100 is complete control; read-out: Ducksalad plant response rating
Outline: as §1

[2] = system: sedge, umbrella (small-flower umbrella sedge, Cyperus difformis); assay: Test B flooded paddy test; conditions: Cyperus difformis, 250 g ai/ha, Flood; 0 to 100 scale where 0 is no effect and 100 is complete control; read-out: Sedge, Umbrella plant response rating
Outline: as §1

[3] = system: barnyardgrass (Echinochloa crus-galli); assay: Test B flooded paddy test; conditions: Echinochloa crus-galli, 250 g ai/ha, Flood; 0 to 100 scale where 0 is no effect and 100 is complete control; read-out: Barnyardgrass plant response rating
Outline: as §1

[4] = system: pigweed (Amaranthus retroflexus); assay: Test A postemergence; conditions: Amaranthus retroflexus, post-emergence, 240 h, 125 g ai/ha, postemergence, visual injury vs untreated controls after approx. 10 d; 0 = no effect, 100 = complete control; read-out: Pigweed plant response rating (0 to 100 scale)
Outline: (§2)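 Preemergence directed soil spray on seeded pots, or postemergence application to plants 2–10 cm, one- to two-leaf. Solvent mixture non-phytotoxic, with surfactant. Scored ~10 d later, visually, 0–100 vs untreated.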

[5] = system: blackgrass (Alopecurus myosuroides); assay: Test A postemergence; conditions: Alopecurus myosuroides, post-emergence, 240 h
Outline: as §2

[6] = system: wheat (Triticum aestivum); assay: Test A postemergence; conditions: Triticum aestivum, post-emergence, 240 h, 125 g ai/ha, postemergence, visual injury vs untreated controls after approx. 10 d; 0 = no effect, 100 = complete control; read-out: Wheat plant response rating (0 to 100 scale)
Outline: as §2

corn (Zea mays) = assay: Test A postemergence; conditions: Zea mays, post-emergence, 240 h
Outline: as §2

[7] = system: ragweed (common ragweed, Ambrosia elatior); assay: Test A postemergence; conditions: Ambrosia artemisiifolia, post-emergence, 240 h, 125 g ai/ha, postemergence, visual injury vs untreated controls after approx. 10 d; 0 = no effect, 100 = complete control; read-out: Ragweed plant response rating (0 to 100 scale)
Outline: as §2

[8] = system: ryegrass, Italian (Italian ryegrass, Lolium multiflorum); assay: Test A postemergence; conditions: Lolium multiflorum, post-emergence, 240 h, 125 g ai/ha, postemergence, visual injury vs untreated controls after approx. 10 d; 0 = no effect, 100 = complete control; read-out: Ryegrass, Italian plant response rating (0 to 100 scale)
Outline: as §2

[9] = system: giant foxtail (Setaria faberii); assay: Test A postemergence; conditions: Setaria faberi, post-emergence, 240 h
Outline: as §2

[10] = system: barnyardgrass (Echinochloa crus-galli); assay: Test A postemergence; conditions: Echinochloa crus-galli, post-emergence, 240 h
Outline: as §2

Kochia (Kochia scoparia) [11] = assay: Test A postemergence; conditions: Bassia scoparia, post-emergence, 240 h
Outline: as §2

[12] = system: Galium (catchweed bedstraw, Galium aparine); assay: Test A postemergence; conditions: Galium, post-emergence, 240 h
Outline: as §2

[13] = system: pigweed (Amaranthus retroflexus); assay: Test A preemergence; conditions: Amaranthus retroflexus, pre-emergence, 240 h, 0 to 100 scale where 0 is no effect and 100 is complete control, read-out: Pigweed plant response rating
[14] = system: ragweed (common ragweed, Ambrosia elatior); assay: Test A preemergence; conditions: Ambrosia artemisiifolia, pre-emergence, 240 h, 0 to 100 scale where 0 is no effect and 100 is complete control, read-out: Ragweed plant response rating
Outline: as §2

[15] = system: ryegrass, Italian (Italian ryegrass, Lolium multiflorum); assay: Test A preemergence; conditions: Lolium multiflorum, pre-emergence, 240 h, 0 to 100 scale where 0 is no effect and 100 is complete control, read-out: Ryegrass, Italian plant response rating
Outline: as §2

[16] = system: giant foxtail (Setaria faberii); assay: Test A preemergence; conditions: Setaria faberi, pre-emergence, 240 h, 0 to 100 scale where 0 is no effect and 100 is complete control, read-out: Foxtail, Giant plant response rating
Outline: as §2

[17] = system: barnyardgrass (Echinochloa crus-galli); assay: Test A preemergence; conditions: Echinochloa crus-galli, pre-emergence, 240 h, 0 to 100 scale where 0 is no effect and 100 is complete control, read-out: Barnyardgrass plant response rating
Outline: as §2

Kochia (Kochia scoparia) [18] = assay: Test A preemergence; conditions: Bassia scoparia, pre-emergence, 240 h, 0 to 100 scale where 0 is no effect and 100 is complete control, read-out: Kochia plant response rating
Outline: as §2

[19] = 125 g ai/ha, preemergence, visual injury rating, approximately 10 d

Which pest or weed control at 250 g/ha (rice (Oryra sativa)) does the source give for `COc1ccc(C(F)(F)F)cc1[C@H]1CN(C)C(=O)[C@@H]1C(=O)Nc1ccccc1SC` [Compound 1185] here?
Its pest or weed control at 250 g/ha is 0%.

And the pest or weed control at 250 g/ha [1]?
The pest or weed control at 250 g/ha was 50%.

What about the pest or weed control at 250 g/ha [2] of the same molecule?
The pest or weed control at 250 g/ha was 0%.

What about the pest or weed control at 250 g/ha [3] of the same molecule?
The pest or weed control at 250 g/ha was 60%.

What about the pest or weed control at 125 g/ha [4] of the same molecule?
Its pest or weed control at 125 g/ha is 0%.

And the pest or weed control at 125 g/ha ([5]; 125 g ai/ha, postemergence, visual injury vs untreated controls after approx. 10 d, 0 = no effect, 100 = complete control, read-out: Blackgrass plant response rating (0 to 100 scale))?
Its pest or weed control at 125 g/ha is 50%.

What about the pest or weed control at 31 g/ha ([5]; Postemergence, 31 g ai/ha, visual injury after approx. 10 d, 0 to 100 scale, 0 no effect, 100 complete control, read-out: Plant response rating, Blackgrass) of the same molecule?
The pest or weed control at 31 g/ha was 0%.

And the plant injury at 125 g/ha [6]?
Its plant injury at 125 g/ha is 40%.

And the plant injury at 125 g/ha (corn (Zea mays); 125 g ai/ha, postemergence, visual injury vs untreated controls after approx. 10 d, 0 = no effect, 100 = complete control, read-out: Corn plant response rating (0 to 100 scale))?
Its plant injury at 125 g/ha is 20%.

What about the Corn plant response rating (crop injury, 0 = no effect, 100 = complete kill) at 31 g/ha (corn (Zea mays); Postemergence, 31 g ai/ha, visual injury after approx. 10 d, 0 to 100 scale, 0 no effect, 100 complete control) of the same molecule?
The Corn plant response rating (crop injury, 0 = no effect, 100 = complete kill) at 31 g/ha was 0%.

What about the pest or weed control at 125 g/ha [7] of the same molecule?
The pest or weed control at 125 g/ha was 0%.

What about the pest or weed control at 125 g/ha [8] of the same molecule?
Its pest or weed control at 125 g/ha is 20%.

What about the pest or weed control at 125 g/ha ([9]; 125 g ai/ha, postemergence, visual injury vs untreated controls after approx. 10 d, 0 = no effect, 100 = complete control, read-out: Foxtail, Giant plant response rating (0 to 100 scale)) of the same molecule?
Its pest or weed control at 125 g/ha is 60%.

And the pest or weed control at 31 g/ha ([9]; Postemergence, 31 g ai/ha, visual injury after approx. 10 d, 0 to 100 scale, 0 no effect, 100 complete control, read-out: Plant response rating, Foxtail, Giant)?
The pest or weed control at 31 g/ha was 30%.

What about the pest or weed control at 125 g/ha ([10]; 125 g ai/ha, postemergence, visual injury vs untreated controls after approx. 10 d, 0 = no effect, 100 = complete control, read-out: Barnyardgrass plant response rating (0 to 100 scale)) of the same molecule?
Its pest or weed control at 125 g/ha is 50%.

And the pest or weed control at 31 g/ha ([10]; Postemergence, 31 g ai/ha, visual injury after approx. 10 d, 0 to 100 scale, 0 no effect, 100 complete control, read-out: Plant response rating, Barnyardgrass)?
The pest or weed control at 31 g/ha was 20%.

And the pest or weed control at 125 g/ha (Kochia (Kochia scoparia) [11]; 125 g ai/ha, postemergence, visual injury vs untreated controls after approx. 10 d, 0 = no effect, 100 = complete control, read-out: Kochia plant response rating (0 to 100 scale))?
Its pest or weed control at 125 g/ha is 0%.

What about the pest or weed control at 31 g/ha (Kochia (Kochia scoparia) [11]; Postemergence, 31 g ai/ha, visual injury after approx. 10 d, 0 to 100 scale, 0 no effect, 100 complete control, read-out: Plant response rating, Kochia) of the same molecule?
Its pest or weed control at 31 g/ha is 0%.

And the pest or weed control at 125 g/ha ([12]; 125 g ai/ha, postemergence, visual injury vs untreated controls after approx. 10 d, 0 = no effect, 100 = complete control, read-out: Galium plant response rating (0 to 100 scale))?
Its pest or weed control at 125 g/ha is 0%.

What about the pest or weed control at 31 g/ha ([12]; Postemergence, 31 g ai/ha, visual injury after approx. 10 d, 0 to 100 scale, 0 no effect, 100 complete control, read-out: Plant response rating, Galium) of the same molecule?
Its pest or weed control at 31 g/ha is 0%.

What about the pest or weed control at 31 g/ha ([13]; 31 g ai/ha, Preemergence) of the same molecule?
Its pest or weed control at 31 g/ha is 0%.

And the pest or weed control at 125 g/ha [13, 19]?
Its pest or weed control at 125 g/ha is 0%.

And the pest or weed control at 31 g/ha ([14]; 31 g ai/ha, Preemergence)?
The pest or weed control at 31 g/ha was 0%.

And the pest or weed control at 125 g/ha [14, 19]?
Its pest or weed control at 125 g/ha is 0%.

And the pest or weed control at 31 g/ha ([15]; 31 g ai/ha, Preemergence)?
Its pest or weed control at 31 g/ha is 0%.

What about the pest or weed control at 125 g/ha [15, 19] of the same molecule?
The pest or weed control at 125 g/ha was 60%.

What about the pest or weed control at 31 g/ha ([16]; 31 g ai/ha, Preemergence) of the same molecule?
The pest or weed control at 31 g/ha was 50%.

And the pest or weed control at 125 g/ha [16, 19]?
Its pest or weed control at 125 g/ha is 90%.

And the pest or weed control at 31 g/ha ([17]; 31 g ai/ha, Preemergence)?
The pest or weed control at 31 g/ha was 70%.

What about the pest or weed control at 125 g/ha [17, 19] of the same molecule?
Its pest or weed control at 125 g/ha is 100%.

And the pest or weed control at 31 g/ha (Kochia (Kochia scoparia) [18]; 31 g ai/ha, Preemergence)?
The pest or weed control at 31 g/ha was 0%.

And the pest or weed control at 125 g/ha (Kochia (Kochia scoparia) [18]; [19])?
The pest or weed control at 125 g/ha was 0%.
